Results: patent publication US9708314B2, “Heterocyclic amide compound” (NISSAN CHEMICAL INDUSTRIES, LTD., priority 2013, dated 2017)

What was measured:
Type in all cases: in vivo
Monochoria vaginalis = experiment: Test Example 2: herbicidal activity, application during weed generation in submerged conditions; settings: Eighteenth Table; application herbicide amount 320 g/ha
In short: (§1)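 Mixed sowings in flooded alluvial soil (4 cm water), greenhouse 25-30 °C; emulsifiable concentrate diluted in water applied to the water surface at the 1-2 leaf stage, rate in g/ha. Effect scored three weeks later on a 0-5 scale (5 = ≥90% herbicidal ratio, 0 = ≤5%).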

Scirpus juncoides = experiment: as above; settings: Eighteenth Table; application herbicide amount 320 g/ha
In short: as §1

[1] = tested on: directly sowed Oryza sativa; experiment: Test Example 3: effect on crop by application to foliage (Wagner pot, water depth 0.1-0.5 cm); settings: Nineteenth Table; application to foliage; application herbicide amount 320 g/ha
In short: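 Alluvial soil in 1/10000 are Wagner pots, sown and grown 14 days in a 25–30 °C greenhouse. An emulsifiable concentrate diluted in water to the set dose (g/ha) was sprayed on stems and leaves. Effect scored three weeks later on a 0–5 scale: 5 = ≥90% herbicidal ratio, 0 = ≤5%.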

[2] = tested on: Beta vulgaris ssp. vulgaris; experiment: Test Example 4: effect on crop by application to foliage (diluvial soil, plastic box); settings: for f (Beta vulgaris ssp. vulgaris) effect on crop grade: Application herbicide amount 320 g/ha, foliage application
In short: (§2)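 Plants were grown in sterilized diluvial soil in a greenhouse at 25-30° C for 14 days, then sprayed on stems and leaves with water-diluted emulsion formulation at set rates in g/ha. Weed control and crop injury were scored 3 weeks after treatment on a 0-5 herbicidal-ratio scale, from 0 (≤5%) to 5 (≥90%).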

Brassica campestris L. = experiment: as above; settings: for g (Brassica campestris L.) effect on crop grade: Application herbicide amount 320 g/ha, foliage application
In short: as §2

Glycine max = experiment: as above; settings: for d (Glycine max) effect on crop grade: Application herbicide amount 320 g/ha, foliage application
In short: as §2

Triticum aestivum = experiment: as above; settings: for e (Triticum aestivum) effect on crop grade: Application herbicide amount 320 g/ha, foliage application
In short: as §2

Zea mays = experiment: as above; settings: for c (Zea mays) effect on crop grade: Application herbicide amount 320 g/ha, foliage application
In short: as §2

[3] = tested on: directly sowed Oryza sativa; experiment: as above; settings: application to foliage, application herbicide amount 320 g/ha
In short: as §2

[4] = application to foliage, application herbicide amount 320 g/ha

Row | SMILES | C (Monochoria vaginalis) herbicidal ratio grade (Monochoria vaginalis) | B (Scirpus juncoides) herbicidal ratio grade (Scirpus juncoides) | b (effect on crop grade) [1] | f: effect on crop, Beta vulgaris ssp. vulgaris [2, 4] | g: effect on crop, Brassica campestris L. (Brassica campestris L.; [4]) | d: effect on crop, Glycine max (Glycine max; [4]) | e: effect on crop, Triticum aestivum (Triticum aestivum; [4]) | c: effect on crop, Zea mays (Zea mays; [4]) | b: effect on crop, directly sowed Oryza sativa [3] | f (Beta vulgaris ssp. vulgaris) effect on crop grade [2] | g (Brassica campestris L.) effect on crop grade (Brassica campestris L.) | d (Glycine max) effect on crop grade (Glycine max) | e (Triticum aestivum) effect on crop grade (Triticum aestivum) | c (Zea mays) effect on crop grade (Zea mays)
1 | CCC(C)c1nnc2c(C(=O)Nc3nnnn3C)ccc(C(F)(F)F)n12 (stereo not drawn) [2-016] | 5 (Herbicidal ratio of 90% or more (almost completely withered)) | 5 (Herbicidal ratio of 90% or more (almost completely withered)) | 5 (Herbicidal ratio of 90% or more (almost completely withered)) | 5 (Herbicidal ratio of 90% or more (almost completely withered)) | 4 (Herbicidal ratio of 70% or more and less than 90%) | 4 (Herbicidal ratio of 70% or more and less than 90%) | 4 (Herbicidal ratio of 70% or more and less than 90%) | 1 (Herbicidal ratio of 5% or more and less than 20%) | 5 (Herbicidal ratio of 90% or more (almost completely withered)) | – | – | – | – | –
2 | Cc1nnc(NC(=O)c2ccc(C(F)(F)F)n3c(N(C)C(C)C)nnc23)o1 [1-132] | 4 (Herbicidal ratio of 70% or more and less than 90%) | 4 (Herbicidal ratio of 70% or more and less than 90%) | 3 (Herbicidal ratio of 40% or more and less than 70%) | – | – | – | – | – | – | 5 (Herbicidal ratio of 90% or more (almost completely withered)) | 4 (Herbicidal ratio of 70% or more and less than 90%) | 3 (Herbicidal ratio of 40% or more and less than 70%) | 1 (Herbicidal ratio of 5% or more and less than 20%) | 2 (Herbicidal ratio of 20% or more and less than 40%)
3 | CCN(C)c1nnc2c(C(=O)Nc3nnc(C)o3)ccc(C(F)(F)F)n12 [1-134] | 3 (Herbicidal ratio of 40% or more and less than 70%) | 3 (Herbicidal ratio of 40% or more and less than 70%) | 2 (Herbicidal ratio of 20% or more and less than 40%) | – | – | – | – | – | – | 5 (Herbicidal ratio of 90% or more (almost completely withered)) | 4 (Herbicidal ratio of 70% or more and less than 90%) | 3 (Herbicidal ratio of 40% or more and less than 70%) | 1 (Herbicidal ratio of 5% or more and less than 20%) | 0 (Herbicidal ratio of 5% or less (almost no effect))
4 | Cc1nnc(NC(=O)c2ccc(C(F)(F)F)n3c(N(C)C4CCCCC4)nnc23)o1 [1-133] | 3 (Herbicidal ratio of 40% or more and less than 70%) | 2 (Herbicidal ratio of 20% or more and less than 40%) | 0 (Herbicidal ratio of 5% or less (almost no effect)) | – | – | – | – | – | – | 3 (Herbicidal ratio of 40% or more and less than 70%) | 0 (Herbicidal ratio of 5% or less (almost no effect)) | 3 (Herbicidal ratio of 40% or more and less than 70%) | 0 (Herbicidal ratio of 5% or less (almost no effect)) | 0 (Herbicidal ratio of 5% or less (almost no effect))
5 | O=C(Nc1nnco1)c1ccc(C(F)(F)F)n2c(N3CCCC3)nnc12 [1-139] | 3 (Herbicidal ratio of 40% or more and less than 70%) | 3 (Herbicidal ratio of 40% or more and less than 70%) | 1 (Herbicidal ratio of 5% or more and less than 20%) | – | – | – | – | – | – | 5 (Herbicidal ratio of 90% or more (almost completely withered)) | 4 (Herbicidal ratio of 70% or more and less than 90%) | 3 (Herbicidal ratio of 40% or more and less than 70%) | 1 (Herbicidal ratio of 5% or more and less than 20%) | 0 (Herbicidal ratio of 5% or less (almost no effect))
6 | CCN(C)c1nnc2c(C(=O)Nc3nnco3)ccc(C(F)(F)F)n12 [1-137] | 3 (Herbicidal ratio of 40% or more and less than 70%) | 3 (Herbicidal ratio of 40% or more and less than 70%) | 3 (Herbicidal ratio of 40% or more and less than 70%) | – | – | – | – | – | – | 5 (Herbicidal ratio of 90% or more (almost completely withered)) | 5 (Herbicidal ratio of 90% or more (almost completely withered)) | 4 (Herbicidal ratio of 70% or more and less than 90%) | 2 (Herbicidal ratio of 20% or more and less than 40%) | 0 (Herbicidal ratio of 5% or less (almost no effect))
7 | Cc1nnc(NC(=O)c2ccc(C(F)(F)F)n3c(NCC(F)(F)F)nnc23)o1 [1-131] | 0 (Herbicidal ratio of 5% or less (almost no effect)) | 1 (Herbicidal ratio of 5% or more and less than 20%) | 2 (Herbicidal ratio of 20% or more and less than 40%) | – | – | – | – | – | – | 3 (Herbicidal ratio of 40% or more and less than 70%) | 0 (Herbicidal ratio of 5% or less (almost no effect)) | 3 (Herbicidal ratio of 40% or more and less than 70%) | 0 (Herbicidal ratio of 5% or less (almost no effect)) | 0 (Herbicidal ratio of 5% or less (almost no effect))
8 | Cc1nnc(NC(=O)c2ccc(C(F)(F)F)n3c(SCC4OCCO4)nnc23)o1 [1-126] | 3 (Herbicidal ratio of 40% or more and less than 70%) | 3 (Herbicidal ratio of 40% or more and less than 70%) | 0 (Herbicidal ratio of 5% or less (almost no effect)) | – | – | – | – | – | – | 5 (Herbicidal ratio of 90% or more (almost completely withered)) | 3 (Herbicidal ratio of 40% or more and less than 70%) | 2 (Herbicidal ratio of 20% or more and less than 40%) | 0 (Herbicidal ratio of 5% or less (almost no effect)) | 1 (Herbicidal ratio of 5% or more and less than 20%)
9 | CN(c1nnc2c(C(=O)Nc3nnco3)ccc(C(F)(F)F)n12)C1CCCCC1 [1-123] | 3 (Herbicidal ratio of 40% or more and less than 70%) | 2 (Herbicidal ratio of 20% or more and less than 40%) | 1 (Herbicidal ratio of 5% or more and less than 20%) | – | – | – | – | – | – | 4 (Herbicidal ratio of 70% or more and less than 90%) | 3 (Herbicidal ratio of 40% or more and less than 70%) | 3 (Herbicidal ratio of 40% or more and less than 70%) | 0 (Herbicidal ratio of 5% or less (almost no effect)) | 0 (Herbicidal ratio of 5% or less (almost no effect))
10 | CCN(CC)c1nnc2c(C(=O)Nc3nnc(C)o3)ccc(C(F)(F)F)n12 [1-135] | 3 (Herbicidal ratio of 40% or more and less than 70%) | 2 (Herbicidal ratio of 20% or more and less than 40%) | 1 (Herbicidal ratio of 5% or more and less than 20%) | – | – | – | – | – | – | 4 (Herbicidal ratio of 70% or more and less than 90%) | 0 (Herbicidal ratio of 5% or less (almost no effect)) | 3 (Herbicidal ratio of 40% or more and less than 70%) | 0 (Herbicidal ratio of 5% or less (almost no effect)) | 0 (Herbicidal ratio of 5% or less (almost no effect))
